The record followed here is patent US20160252494A1, “MICROSCALE MICROPATTERNED ENGINEERED IN VITRO TISSUE” (priority 2005, published 2016).

The test system of data set [1] is CYP1A2. Description: Induction of CYP1A2 activity in microscale liver tissues (ethoxyresorufin dealkylation). The conditions noted are these: incubation 1 or 3 days, varying dose.
In data set [2] the test system is CYP2A6.
Protocol: The reactions were stopped by collection of the incubation medium. Then, potential metabolite conjugates formed via Phase II activity were hydrolyzed by incubation of supernatants with β-glucuronidase/arylsulfatase (Roche, IN) for 2 hours at 37° C. Samples were diluted 1:1 in quenching solution and fluorescent metabolite formation was quantified by means of a fluorescence micro-plate reader (Molecular Devices, Sunnyvale, Calif.) as described elsewhere in detail. Production of 7-HC from CM is a reaction (CM 7-Hydroxylation) mediated by CYP2A6 in humans, production of 7-HFC from BFC or MFC (dealkylation) is mediated by several different CYP450s, and production of RR from ER (ER Odealkylation) is mediated by CYP1A2.
Cytochrome-P450 Induction. Stock solutions of prototypic CYP450 inducers (Sigma) were made in dimethylsulfoxide (DMSO), except for Phenobarbital, which was dissolved in water. Cultures were treated with inducers (Rifampin 25 μM, β-Naphthoflavone 30 μM or 50 μM, Phenobarbital 1 mM, Omeprazole 50 μM) dissolved in hepatocyte culture medium for 4 days. Control cultures were treated with vehicle (DMSO) alone for calculations of fold induction. To enable comparisons across inducers, DMSO levels were kept constant at 0.06% (v/v) for all conditions.
For data set [3], the system named is CYP3A. The conditions noted are these: hepatocytes.
Data set [4] relates to CYP2B.
For data set [5], the system named is micropatterned human co-cultures (primary human hepatocytes with 3T3-J2 fibroblasts). The settings on record: MTT. As for the experimental part: Cultures were incubated with various concentrations of compounds dissolved in culture medium for 24 hours (acute toxicity) or extended time periods (chronic toxicity, 1-4 days). Cell viability was subsequently measured via the MTT (3-(4,5-dimethylthiazol-2-yl)-2,5-diphenyl tetrazolium bromide; Sigma) assay, which involves cleavage of the tetrazolium ring by mitochondrial dehydrogenase enzymes to form a purple precipitate. MTT was added to cells in DMEM without phenol red at a concentration of 0.5 mg/mL. After an incubation time of 1 hour, the purple precipitate was dissolved in a 1:1 solution of DMSO and Isopropanol. The absorbance of the solution was measured at 570 nm (SpectraMax spectrophotometer, Molecular Devices, Sunnyvale, Calif.).
Use of optimized micropatterned human co-cultures to evaluate metabolism and toxicity of xenobiotics. […] Acute toxicity tests involved incubating eight day old co-cultures for 24 hrs with various drugs, some with known clinical hepatotoxic potential. After the incubation time period, the cell culture medium was aspirated and a viability assay was conducted (MTT assay—commercially available). […]
To assess utility of the microscale human liver tissue for toxicity assays, the acute and chronic toxicity of model hepatotoxins were quantified. […]

Data set [6] has as its system CYP1A2. The settings on record: human and rat, 4 days, 50 µM.
The target of data set [7] is T1, CYP2A6 (Homo sapiens, UniProt P11509).
T1 sequence (P11509 1-494): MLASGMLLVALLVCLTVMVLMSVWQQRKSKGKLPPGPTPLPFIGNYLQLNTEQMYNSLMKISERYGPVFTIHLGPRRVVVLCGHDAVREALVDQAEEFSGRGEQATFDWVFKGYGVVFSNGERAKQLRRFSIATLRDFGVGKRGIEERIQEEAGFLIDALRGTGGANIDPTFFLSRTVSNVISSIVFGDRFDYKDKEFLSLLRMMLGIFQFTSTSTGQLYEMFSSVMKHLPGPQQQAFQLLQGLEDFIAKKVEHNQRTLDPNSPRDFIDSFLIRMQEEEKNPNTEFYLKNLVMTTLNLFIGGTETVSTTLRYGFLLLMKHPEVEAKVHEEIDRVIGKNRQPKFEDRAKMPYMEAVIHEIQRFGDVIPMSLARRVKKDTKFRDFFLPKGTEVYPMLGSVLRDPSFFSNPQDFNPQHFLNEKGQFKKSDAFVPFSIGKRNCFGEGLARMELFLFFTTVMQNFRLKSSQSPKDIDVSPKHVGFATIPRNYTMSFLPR
Protocol: Mitochondrial activity was measured using the MTT assay. All data was normalized to vehicle-only controls. […] ER, Ethoxy-resorufin. […] Error bars represent standard error of the mean (n=3).
The reactions were stopped by collection of the incubation medium. Then, potential metabolite conjugates formed via Phase II activity were hydrolyzed by incubation of supernatants with β-glucuronidase/arylsulfatase (Roche, IN) for 2 hours at 37° C. Samples were diluted 1:1 in quenching solution and fluorescent metabolite formation was quantified by means of a fluorescence micro-plate reader (Molecular Devices, Sunnyvale, Calif.) as described elsewhere in detail.

The test system of data set [8] is CYP2B. Nature of the data set: CYP2B protein induction in static and perfused bioreactor hepatocyte cultures.
For data set [9], the system named is CYP3A. Nature of the data set: CYP3A protein induction in static and perfused bioreactor hepatocyte cultures.
Where [10] appears, read: treated 4 days with prototypic inducers.
Where [11] appears, read: static cultures, 48 hour induction.

Like-named read-outs stand apart in the source and are kept apart here.

As to `O=c1cc(-c2ccccc2)oc2ccc3ccccc3c12` [β-Naphthoflavone], the “Induction of CYP1A2 activity” value in data set [1] was “dose and time-dependent manner”. Besides, in data set [2] (setting [10]), the CYP2A6 induction entry is “weaker effects”.

On to “EGF: epidermal growth factor, added to perfusion media with PB or DEX”, for which the “Effect on DEX-induced CYP3A induction” value in [3] was “remained uniform”. Further, the “Effect on DEX-induced CYP2B” value in data set [4] is “significant shift in CYP2B spatial distribution was noted from inlet regions to the outlet”.

Consider `C[C@@H]1C[C@H]2[C@@H]3CCC4=CC(=O)C=C[C@]4(C)[C@@]3(F)[C@@H](O)C[C@]2(C)[C@@]1(O)C(=O)CO` [DEX, dexamethasone], for which the CYP2B induction result in [4] is “high levels”.

Regarding `CO[C@H]1/C=C/O[C@@]2(C)Oc3c(C)c(O)c4c(O)c(c(/C=N/N5CCN(C)CC5)c(O)c4c3C2=O)NC(=O)/C(C)=C\C=C\[C@H](C)[C@H](O)[C@@H](C)[C@@H](O)[C@@H](C)[C@H](OC(C)=O)[C@@H]1C` [Rifampin], in data set [2], the CYP2A6 induction entry was “induction was observed”.

Consider `[Cl][Cd][Cl]` [Cadmium, Cadmium chloride], for which, in data set [5] (24 hrs incubation), the “Relative acute toxicity in vitro” value is on record as “severely toxic”. In [5] (acute exposure 24 hours), the “Shape of dose-dependent toxicity profile” value was “relatively linear toxic profile”.

On to `COc1ccc2[nH]c([S+]([O-])Cc3ncc(C)c(OC)c3C)nc2c1` (stereo not shown) [Omeprazole], for which, in [6], the “Effectiveness of CYP1A2 induction in human over rat models” value is given as 8 fold. In [2], the CYP2A6 induction entry is on record as “weaker effects”.

For the molecule `COc1c2occc2cc2ccc(=O)oc12` [methoxsalen, Methoxsalen], the “Inhibition of CYP2A6 activity” value in [7] is reported as “dose-dependent inhibition”.

Take `CCC1(c2ccccc2)C(=O)NC(=O)NC1=O` [Phenobarbital]: the CYP2B expression entry is reported as “Dramatic expression of both CYPs over controls” in data set [8] (perfused cultures, 36 hours) and “moderate” in data set [8] (setting [11]). Further, in data set [2] (setting [10]), the CYP2A6 induction result is “induction was observed”. In addition, the CYP3A expression result in data set [9] (perfused cultures, 36 hours) is “Dramatic expression of both CYPs over controls”; in data set [9] (setting [11]), “low”.
